Reference: patent US10138254B2, “Bicyclic compounds as pest control agents” (BAYER CROPSCIENCE AKTIENGESELLSCHAFT, priority 2014, dated 2018)
Where two headings read alike, the source gives them in different places.

Assays:
[1] = log P by HPLC on reversed-phase (C18) columns, OECD Guideline 117; assay type: physicochemical; settings: for chromatographic logP: reversed-phase (C18) HPLC column
Method: The log P values were determined in accordance with OECD Guideline 117 (EC Directive 92/69/EEC) by HPLC (high-performance liquid chromatography) using reversed-phase (RP) columns (C18), by the following methods: [a] The LC-MS determination in the acidic range is carried out at pH 2.7 with 0.1% aqueous formic acid and acetonitrile (contains 0.1% formic acid) as eluents; linear gradient from 10% acetonitrile to 95% acetonitrile. [b] LC-MS determination in the neutral range is effected at pH 7.8 with 0.001 molar aqueous ammonium hydrogencarbonate solution and acetonitrile as eluents; linear gradient from 10% acetonitrile to 95% acetonitrile. Calibration is carried out using unbranched alkan-2-ones (having 3 to 16 carbon atoms) with known log P values (log P values determined on the basis of the retention times by linear interpolation between two successive alkanones).

[2] = system: green peach aphid (Myzus persicae); test: Myzus persicae spray test (Chinese cabbage leaf discs); assay type: in vivo; settings: application rate 500 g/ha, after 6 days, 100% = all aphids killed; for pest or weed control at 500 g/ha: Myzus persicae, foliar, 144 h, read-out: efficacy
Method: Myzus persicae—Spray Test Solvent: 78 parts by weight of acetone • • 1.5 parts by weight of dimethylformamide Emulsifier: alkylaryl polyglycol ether To produce a suitable active ingredient formulation, 1 part by weight of active ingredient is dissolved with the specified parts by weight of solvent and made up with water containing an emulsifier concentration of 1000 ppm until the desired concentration is attained. To produce further test concentrations, the formulation is diluted with emulsifier-containing water. Discs of Chinese cabbage leaves (Brassica pekinensis) infested by all stages of the green peach aphid (Myzus persicae) are sprayed with an active ingredient formulation of the desired concentration. After 6 days, the efficacy in % is determined. 100% means that all the aphids have been killed; 0% means that no aphids have been killed.

[3] = system: greenhouse red spider mite (Tetranychus urticae); test: Tetranychus urticae spray test, OP-resistant (bean leaf discs); assay type: in vivo; settings: application rate 500 g/ha, after 6 days, 100% = all spider mites killed
Method: Tetranychus urticae—Spray Test, OP-Resistant
Solvent: 78.0 parts by weight of acetone • • 1.5 parts by weight of dimethylformamide
Emulsifier: alkylaryl polyglycol ether
To produce a suitable active ingredient formulation, 1 part by weight of active ingredient is dissolved with the specified parts by weight of solvent and made up with water containing an emulsifier concentration of 1000 ppm until the desired concentration is attained. To produce further test concentrations, the formulation is diluted with emulsifier-containing water.
Discs of bean leaves (Phaseolus vulgaris) infested with all stages of the greenhouse red spider mite (Tetranychus urticae) are sprayed with an active ingredient formulation of the desired concentration.
After 6 days, the efficacy in % is determined. 100% means that all the spider mites have been killed; 0% means that no spider mites have been killed.

[4] = acidic range, pH 2.7, 0.1% aqueous formic acid and acetonitrile
[5] = neutral range, pH 7.8, 0.001 molar aqueous ammonium hydrogencarbonate and acetonitrile
[6] = acidic range, pH 2.7, 0.1% aqueous formic acid and acetonitrile, read-out: LogP[a]
[7] = neutral range, pH 7.8, 0.001 molar aqueous ammonium hydrogencarbonate and acetonitrile, read-out: logP[b]

Row | Compound | LogP[a] [1, 4] | logP[b] [1, 5] | chromatographic logP [1, 6] | chromatographic logP [1, 7] | pest or weed control at 500 g/ha [2] [%] | also measured
1 | Cc1cc(F)c(-c2cnc3nc(-c4cccnc4)sc3c2)cc1[S+]([O-])CC(F)(F)F (stereo not shown) [Example 23, 6-{2-Fluoro-4-methyl-5-[(2,2,2-trifluoroethyl)sulphinyl]phenyl}-2-(pyridin-3-yl)[1,3]thiazolo[4,5-b]pyridine] | – | – | 2.5 | 2.46 | 90 | –
2 | Cc1nn(-c2cnc3nc(-c4cccnc4)sc3c2)c(=S)n1C [Example 31, 4,5-Dimethyl-2-[2-(pyridin-3-yl)[1,3]thiazolo[4,5-b]pyridin-6-yl]-2,4-dihydro-3H-1,2,4-triazole-3-thione] | – | – | 0.97 | 1.21 | 90 | –
3 | Cc1cc(F)c(-c2cnc3nc(-c4cccnc4)sc3c2)cc1SCC(F)(F)F [Example 22, 6-{2-Fluoro-4-methyl-5-[(2,2,2-trifluoroethyl)sulphanyl]phenyl}-2-(pyridin-3-yl)[1,3]thiazolo[4,5-b]pyridine] | – | – | 3.83 | 3.78 | 100 | efficacy [3]: 90%
4 | Cc1cc(C)c(-c2cnc3nc(-c4cccnc4)sc3c2)cc1SCC(F)(F)F [Example 19, 6-{2,4-Dimethyl-5-[(2,2,2-trifluoroethyl)sulphanyl]phenyl}-2-(pyridin-3-yl)[1,3]thiazolo[4,5-b]pyridine] | – | – | 3.97 | 3.95 | 100 | –
5 | CSCCNC(=O)c1cnc2nc(-c3cccnc3)sc2c1 [Example 52, N-[2-(Methylsulphanyl)ethyl]-2-(pyridin-3-yl)[1,3]thiazolo[4,5-b]pyridine-6-carboxamide] | – | – | 1.39 | – | – | –
6 | FC(F)(F)c1ccn(-c2cnc3nc(-c4cccnc4)sc3c2)n1 [Example 27] | – | – | – | 2.57 | – | –
7 | Cn1cnn(-c2cnc3nc(-c4cccnc4)sc3c2)c1=S [Example 29] | 1.00 | 1.07 | – | – | – | –
8 | c1cncc(-c2nc3ncc(-n4cccn4)cc3s2)c1 [Example 26, 6-(1H-Pyrazol-1-yl)-2-(pyridin-3-yl)[1,3]thiazolo[4,5-b]pyridine] | – | – | – | 1.62 | 90 | –
9 | CC[S+]([O-])c1ccccc1-c1cnc2nc(-c3ccc[n+]([O-])c3)sc2c1 (stereo not shown) [Example 16, 6-[2-(Ethylsulphinyl)phenyl]-2-(1-oxidopyridin-3-yl)[1,3]thiazolo[4,5-b]pyridine] | – | – | 1.86 | 1.87 | 90 | –
10 | O=C(Nc1cccc(SC(F)(F)F)c1)c1cnc2nc(-c3cncc(F)c3)sc2c1 [Example 57, 2-(5-Fluoropyridin-3-yl)-N-{3-[(trifluoromethyl)sulphanyl]phenyl}[1,3]thiazolo[4,5-b]pyridine-6-carboxamide] | – | – | 3.53 | – | – | –
11 | CS(=O)(=O)CCNC(=O)c1cnc2nc(-c3cccnc3)sc2c1 [Example 54, N-[2-(Methylsulphonyl)ethyl]-2-(pyridin-3-yl)[1,3]thiazolo[4,5-b]pyridine-6-carboxamide] | – | – | 0.84 | – | – | –
12 | FC(F)(F)c1cnn(-c2cnc3nc(-c4cccnc4)sc3c2)c1 [Example 28] | 2.48 | 2.53 | – | – | – | –
13 | Cc1cc(C)c([S+]([O-])CC(F)(F)F)cc1-c1cnc2nc(-c3cccnc3)sc2c1 (stereo not shown) [Example 20, 6-{2,4-Dimethyl-5-[(2,2,2-trifluoroethyl)sulphinyl]phenyl}-2-(pyridin-3-yl)[1,3]thiazolo[4,5-b]pyridine] | – | – | 2.54 | 2.52 | 90 | –
14 | Cc1nn(-c2cnc3nc(-c4cccnc4)sc3c2)c(=O)n1C [Example 30, 4,5-Dimethyl-2-[2-(pyridin-3-yl)[1,3]thiazolo[4,5-b]pyridin-6-yl]-2,4-dihydro-3H-1,2,4-triazol-3-one] | – | – | 1.23 | 1.42 | 100 | –
15 | CC[S+]([O-])c1ccc(-c2cnc3nc(-c4ccc[n+]([O-])c4)sc3c2)cc1 (stereo not shown) [Example 13] | 1.85 | 1.85 | – | – | – | efficacy [2]: 90%
16 | O=C(Nc1cccc([S+]([O-])C(F)(F)F)c1)c1cnc2nc(-c3cncc(F)c3)sc2c1 (stereo not shown) [Example 58, 2-(5-Fluoropyridin-3-yl)-N-{3-[(trifluoromethyl)sulphinyl]phenyl}[1,3]thiazolo[4,5-b]pyridine-6-carboxamide] | – | – | 2.54 | – | – | –

More lines, main results first:

Row | LogP[a] [1, 4] | logP[b] [1, 5] | chromatographic logP [1, 6] | chromatographic logP [1, 7] | Compound | pest or weed control at 500 g/ha [2] [%] | also measured
17 | 2.47 | 2.56 | – | – | c1ccc(-c2cnc3nc(-c4cccnc4)sc3c2)cc1 [Example 1] | – | –
18 | – | – | 2.98 | 3.01 | Clc1cccc(-c2cnc3nc(-c4cccnc4)sc3c2)c1 [Example 7, 6-(3-Chlorophenyl)-2-(pyridin-3-yl)[1,3]thiazolo[4,5-b]pyridine] | 100 | –
19 | 1.58 | 1.86 | – | – | CC[S+]([O-])c1ccc(-c2cnc3nc(-c4cccnc4)sc3c2)cc1 (stereo not shown) [Example 12] | – | –
20 | 3.34 | 3.37 | – | – | CCSc1ccc(-c2cnc3nc(-c4cccnc4)sc3c2)cc1 [Example 11] | – | –
21 | – | – | 3.12 | 3.13 | CCSc1ccccc1-c1cnc2nc(-c3cccnc3)sc2c1 [Example 14, 6-[2-(Ethylsulphanyl)phenyl]-2-(pyridin-3-yl)[1,3]thiazolo[4,5-b]pyridine] | – | –
22 | 2.4 | 2.34 | – | – | Cc1ccc(-c2cnc3nc(-c4cccnc4)sc3c2)cc1[S+]([O-])CC(F)(F)F (stereo not shown) [Example 18] | – | efficacy [2]: 90%
23 | – | – | 2.76 | 2.8 | Cc1ccccc1-c1cnc2nc(-c3cccnc3)sc2c1 [Example 2, 6-(2-Methylphenyl)-2-(pyridin-3-yl)[1,3]thiazolo[4,5-b]pyridine] | 100 | –
24 | 2.91 | 2.96 | – | – | Cc1ccc(-c2cnc3nc(-c4cccnc4)sc3c2)cc1 [Example 4] | – | efficacy [2]: 100%
25 | 3.74 | 3.68 | – | – | Cc1ccc(-c2cnc3nc(-c4cccnc4)sc3c2)cc1SCC(F)(F)F [Example 17] | – | efficacy [2]: 90%
26 | – | 3.36 | – | – | CCSc1cccc(-c2cnc3nc(-c4cccnc4)sc3c2)c1 [Example 10] | – | –
27 | 2.91 | 2.95 | – | – | Cc1cccc(-c2cnc3nc(-c4cccnc4)sc3c2)c1 [Example 3] | – | –
28 | – | – | 1.58 | 1.59 | CC[S+]([O-])c1ccccc1-c1cnc2nc(-c3cccnc3)sc2c1 (stereo not shown) [Example 15, 6-[2-(Ethylsulphinyl)phenyl]-2-(pyridin-3-yl)[1,3]thiazolo[4,5-b]pyridine] | – | –
29 | – | 2.96 | – | – | CSc1cccc(-c2cnc3nc(-c4cccnc4)sc3c2)c1 [Example 9] | – | efficacy [2]: 100%
30 | – | – | – | 1.95 | Brc1cnc2nc(-c3cccnc3)sc2c1 [I-a-1, 6-bromo-2-(pyridin-3-yl)[1,3]thiazolo[4,5-b]pyridine] | – | –
31 | 2.77 | 2.78 | – | – | Clc1ccccc1-c1cnc2nc(-c3cccnc3)sc2c1 [Example 6] | – | efficacy [2]: 100%
32 | 2.25 | 2.27 | – | – | c1ccc(Nc2cnc3nc(-c4cccnc4)sc3c2)cc1 [Example 24] | – | –
33 | 2.98 | 3.03 | – | – | Clc1ccc(-c2cnc3nc(-c4cccnc4)sc3c2)cc1 [Example 8] | – | –
34 | 2.51 | 2.54 | – | – | Fc1ccccc1-c1cnc2nc(-c3cccnc3)sc2c1 [Example 5] | – | –
35 | – | – | 2.66 | 2.69 | Clc1cccc(Nc2cnc3nc(-c4cccnc4)sc3c2)c1 [Example 25, N-(3-Chlorophenyl)-2-(pyridin-3-yl)[1,3]thiazolo[4,5-b]pyridin-6-amine] | 90 | –
